Tests used:
[1] = biological target: Estrogen receptor (Mus musculus) (UniProt O08537+P19785); test: Relative binding affinity for estrogen receptor; assay type: protein assay
[2] = biological target: T1, Progesterone receptor (Oryctolagus cuniculus) (UniProt P06186); test: Relative binding affinity for progesterone receptor
T1 sequence (whole entry): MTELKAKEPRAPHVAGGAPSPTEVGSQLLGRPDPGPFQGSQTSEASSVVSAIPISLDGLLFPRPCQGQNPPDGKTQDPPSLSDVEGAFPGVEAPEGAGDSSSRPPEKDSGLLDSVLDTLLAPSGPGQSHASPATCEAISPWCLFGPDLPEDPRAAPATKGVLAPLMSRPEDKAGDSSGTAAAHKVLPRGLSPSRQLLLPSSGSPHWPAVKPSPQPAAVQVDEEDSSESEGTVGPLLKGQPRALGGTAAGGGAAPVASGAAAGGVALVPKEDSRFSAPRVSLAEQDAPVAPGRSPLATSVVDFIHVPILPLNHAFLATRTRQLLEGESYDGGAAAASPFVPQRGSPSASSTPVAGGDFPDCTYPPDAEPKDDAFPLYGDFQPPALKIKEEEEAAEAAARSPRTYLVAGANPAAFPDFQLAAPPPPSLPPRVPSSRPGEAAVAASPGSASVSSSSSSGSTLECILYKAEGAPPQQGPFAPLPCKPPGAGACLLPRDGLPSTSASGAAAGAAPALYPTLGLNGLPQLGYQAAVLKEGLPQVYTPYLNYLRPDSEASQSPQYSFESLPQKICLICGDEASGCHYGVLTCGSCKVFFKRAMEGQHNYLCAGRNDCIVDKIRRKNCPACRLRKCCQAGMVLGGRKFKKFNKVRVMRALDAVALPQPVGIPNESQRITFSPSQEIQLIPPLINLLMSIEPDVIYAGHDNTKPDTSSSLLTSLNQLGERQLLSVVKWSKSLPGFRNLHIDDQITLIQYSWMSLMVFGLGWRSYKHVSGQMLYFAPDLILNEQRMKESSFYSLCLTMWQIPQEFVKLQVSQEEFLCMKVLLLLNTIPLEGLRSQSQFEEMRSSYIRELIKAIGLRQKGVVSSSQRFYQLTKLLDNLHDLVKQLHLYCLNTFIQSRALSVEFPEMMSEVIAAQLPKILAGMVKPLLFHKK

Chain of Estrogen receptor (Mus musculus) (O08537 whole entry, looked up): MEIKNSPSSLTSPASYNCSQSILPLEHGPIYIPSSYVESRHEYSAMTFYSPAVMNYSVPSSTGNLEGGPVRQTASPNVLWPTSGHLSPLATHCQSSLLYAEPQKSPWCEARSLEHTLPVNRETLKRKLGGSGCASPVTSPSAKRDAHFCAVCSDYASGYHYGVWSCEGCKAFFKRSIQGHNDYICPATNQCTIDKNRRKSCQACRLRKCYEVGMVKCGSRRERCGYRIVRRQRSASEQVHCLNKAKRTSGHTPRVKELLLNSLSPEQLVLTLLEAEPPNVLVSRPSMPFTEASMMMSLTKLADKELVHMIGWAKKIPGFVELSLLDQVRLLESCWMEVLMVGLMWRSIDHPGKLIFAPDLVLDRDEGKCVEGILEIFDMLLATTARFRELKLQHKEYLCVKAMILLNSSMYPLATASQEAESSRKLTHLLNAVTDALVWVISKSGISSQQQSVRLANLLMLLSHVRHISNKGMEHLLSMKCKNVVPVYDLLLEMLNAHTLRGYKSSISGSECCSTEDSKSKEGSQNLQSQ
Chain of Estrogen receptor (Mus musculus) (P19785 whole entry, looked up): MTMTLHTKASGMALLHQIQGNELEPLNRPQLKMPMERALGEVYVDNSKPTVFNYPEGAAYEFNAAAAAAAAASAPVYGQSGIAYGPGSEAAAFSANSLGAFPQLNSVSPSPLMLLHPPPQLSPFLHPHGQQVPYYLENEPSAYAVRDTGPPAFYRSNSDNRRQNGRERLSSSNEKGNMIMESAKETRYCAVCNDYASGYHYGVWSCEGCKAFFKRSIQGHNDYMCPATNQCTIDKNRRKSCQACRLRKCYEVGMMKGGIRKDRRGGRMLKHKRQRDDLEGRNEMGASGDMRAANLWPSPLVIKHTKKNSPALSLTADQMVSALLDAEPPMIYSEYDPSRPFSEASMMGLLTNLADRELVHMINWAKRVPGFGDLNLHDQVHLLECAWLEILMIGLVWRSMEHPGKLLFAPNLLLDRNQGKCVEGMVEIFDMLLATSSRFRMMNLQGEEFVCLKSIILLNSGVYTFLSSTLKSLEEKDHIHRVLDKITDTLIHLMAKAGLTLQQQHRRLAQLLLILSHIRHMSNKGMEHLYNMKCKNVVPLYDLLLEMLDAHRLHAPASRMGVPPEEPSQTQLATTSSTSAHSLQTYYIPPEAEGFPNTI

Row | Structure (SMILES) | relative binding affinity (RBA) [1] | relative binding affinity (RBA) [2]
1 | C[C@]12CC[C@H]3[C@@H](CCC4=CC(=O)CC[C@@]43C)[C@@H]1CC[C@@H]2C(=O)C[Se]c1ccccc1 | < 0.1 | 59
2 | CC(=O)[C@H]1CC[C@H]2[C@@H]3CCC4=CC(=O)CC[C@]4(C)[C@H]3CC[C@]12C | < 0.1 | 100
3 | CC(=O)[C@@]1([Se]c2ccccc2)CC[C@H]2[C@@H]3CCC4=CC(=O)CC[C@]4(C)[C@H]3CC[C@@]21C | < 0.1 | 2.1

Reference: ChEMBL document CHEMBL1122289
